Results: paper PMC6321439, “Structural Elucidation and Cytotoxicity of a New 17-Membered Ring Lactone from Algerian Eryngium campestre” (Molecules, 2018)
In brackets after ≈: the same amount, converted by molar mass. Read-outs that look alike come from different tables or passages of the source. Values belong to the molecule of their own block, whether it stands above or below them.

Tests used:
[1] = Cytotoxicity / anticancer activity on J774 cells; type: cell-based; conditions: mouse, J774 cancerous macrophage-like murine cells, mean ± SD from at least six values
Experimental: (§1) The crude extract and the newly identified pure compound (91.9%), campestrolide, were evaluated in vitro for their cytotoxicity on two mammalian cell lines: normal human fibroblasts (WI38) and cancerous macrophage-like murine cells. Their antiprotozoal activities were also investigated on Trypanosoma brucei brucei (Tbb. strain 427) bloodstream forms and Leishmania mexicana mexicana (Lmm. MHOM/BZ/84/BEL46) promastigotes. The tests were performed using stock solutions prepared in DMSO at 10 mg/mL. For the cytotoxicity assay, the samples were tested in eight serial 1.7-fold dilutions (150 µL transferred into 100 µL fresh medium) in the 96-well microtiter plates (concentration range: 0.7–25 µg/mL). The camptothecin (Sigma-Aldrich, St.-Louis, MO, USA) was used as a positive control with 5-fold dilutions (concentration range: 0.00032–25 µg/mL) from a 10 mg/mL DMSO stock solution. For the antiparasitic assays, the samples were tested in eight serial 2-fold dilutions (concentration range: 0.20–25 or 0.10–12 µg/mL on Leishmania and Trypanosoma, respectively). Suramine sodium and pentamidine isethionate salts (Sigma-Aldrich, St.-Louis, MO, USA) were used as a positive control with 3-fold dilutions (0.0046–10 µg/mL) from a stock solution of 2 mg/mL as well as amphotericin B. A maximum of 0.5% DMSO was previously verified to be non-toxic in all the biological assays. The IC50 values were determined using Microsoft Excel and GraphPad Prism 7.0 software (GraphPad, San Diego, CA, USA), based on a nonlinear regression. The selectivity index was calculated in comparison to the WI38 cytotoxicity to assess the therapeutic properties as antiparasitic or anticancer hits.

[2] = Cytotoxicity on WI38 cells; type: cell-based; conditions: human, WI38 normal human fibroblasts, mean ± SD from at least six values
Experimental: as §1

[3] = test system: Leishmania mexicana mexicana promastigotes; test: Antileishmanial activity in vitro; type: cell-based; conditions: for IC50: Leishmania mexicana
Experimental: as §1

[4] = test system: all tested cells; test: Summary over cytotoxicity and antiprotozoal assays; type: cell-based; conditions: read-out: IC50 on all tested cells except Trypanosoma
Experimental: as §1, with “Suramine sodium and pentamidine isethionate salts (Sigma-Aldrich, St.-Louis, MO, USA) were used as a positive control with 3-fold dilutions (0.0046–10 µg/mL) from a stock solution of 2 mg/mL as well as amphotericin B. A maximum of 0.5% DMSO was previously verified to be non-toxic in all the biological assays.” left out

[5] = test system: Trypanosoma brucei brucei (bloodstream forms); test: Antitrypanosomal activity in vitro; type: cell-based
Experimental: as §1

[6] = test system: Trypanosoma brucei rhodesiense, T. cruzi, Plasmodium falciparum and Leishmania donovani axenic and the infected macrophages amastigotes; design: method as in PMID 17922552; conditions: cited from earlier work; for IC50: T. b. rhodesiense, T. cruzi, P. falciparum, L. donovani axenic and infected-macrophage amastigotes, read-out: IC50 on protozoan panel
[7] = design: method as in earlier work; conditions: cited from earlier work
[8] = test system: Trypanosoma brucei brucei; design: method as in PMID 22473703; conditions: cited from earlier work
[9] = test system: T. cruzi trypomastigotes; design: method as in PMID 22414103; conditions: at 100 µg/mL; cited from earlier work
[10] = test system: cruzain; design: method as in PMID 22414103; conditions: cited from earlier work
[11] = read-out: Cytotoxicity IC50 ± SD J774
[12] = read-out: Cytotoxicity IC50 ± SD J774 (µM for pure compound)
[13] = read-out: Cytotoxicity IC50 ± SD WI38
[14] = read-out: Cytotoxicity IC50 ± SD WI38 (µM for pure compound)
[15] = Lmm promastigotes, read-out: Antiparasitic activity IC50 ± SD Lmm
[16] = Lmm promastigotes, read-out: Antiparasitic activity IC50 ± SD Lmm (µM for pure compound)
[17] = Trypanosoma brucei, Tbb bloodstream forms, strain 427, read-out: Antiparasitic activity IC50 ± SD Tbb
[18] = Trypanosoma brucei, Tbb bloodstream forms, strain 427, read-out: Antiparasitic activity IC50 ± SD Tbb (µM for pure compound)

SMILES: CC[C@@]1(O)C(=O)OCc2c1cc1n(c2=O)Cc2cc3ccccc3nc2-1 [camptothecin, reference compound]
- IC50 [1, 11]: 0.007 ± 0.005 µg/mL
- IC50 [1, 12]: 0.021 µM
- IC50 [2, 13]: 0.036 ± 0.022 µg/mL
- IC50 [2, 14]: 0.103 µM

SMILES: C=C[C@@H]1C#CC#CC/C=C\CCCCCCCC(=O)O1 [Compound 33, (Z)-17(R)-vinyloxacycloheptadeca-10-en-13,15-diyn-2-one]
- IC50 [1, 11]: 4.84 ± 0.1 µg/mL
- IC50 [1, 12]: 17.9 µM
- IC50 [2, 13]: 5.2 ± 0.24 µg/mL
- IC50 [2, 14]: 19.2 µM
- IC50 [3, 15]: 3.43 ± 0.02 µg/mL
- IC50 [3, 16]: 12.7 µM
- Selectivity Index IC50 WI38/IC50 Parasite, Lmm ([3]; compared to WI38 cytotoxicity): 1.5
- IC50 [4]: 12500 to 19500 nM
- Antiparasitic activity IC50 ± SD Tbb ([5]; Tbb bloodstream forms, strain 427): 0.59 ± 0.08 µg/mL
- IC50 ([5]; Tbb bloodstream forms, strain 427, read-out: Antiparasitic activity IC50 ± SD Tbb (µM for pure compound)): 2.17 µM
- IC50 [5, 17]: 0.6 µg/mL
- IC50 [5, 18]: 2.2 µM
- Selectivity Index IC50 WI38/IC50 Parasite, Tbb ([5]; compared to WI38 cytotoxicity): 8.9

SMILES: C[C@@H]1[C@H](O)[C@@H](C)/C=C/C=C/C=C/C=C/C=C/C=C/C=C/[C@H](O[C@@H]2O[C@H](C)[C@@H](O)[C@H](N)[C@@H]2O)C[C@@H]2O[C@](O)(C[C@@H](O)C[C@@H](O)[C@H](O)CC[C@@H](O)C[C@@H](O)CC(=O)O[C@H]1C)C[C@H](O)[C@H]2C(=O)O [amphotericin B, reference compound]
- IC50 ([3]; read-out: Antiparasitic activity IC50 ± SD Lmm (µM for pure compound)): 0.09 ± 0.06 µM

SMILES: N=C(N)c1ccc(OCCCCCOc2ccc(C(=N)N)cc2)cc1 [pentamidine, reference compound]
- IC50 [3, 15]: 0.057 ± 0.008 µg/mL
- IC50 [3, 16]: 0.097 µM

- IC50 [5, 17]: 0.031 ± 0.012 µg/mL
- IC50 [5, 18]: 0.022 µM
SMILES: Cc1ccc(C(=O)Nc2ccc(S(=O)(=O)O)c3cc(S(=O)(=O)O)cc(S(=O)(=O)O)c23)cc1NC(=O)c1cccc(NC(=O)Nc2cccc(C(=O)Nc3cc(C(=O)Nc4ccc(S(=O)(=O)O)c5cc(S(=O)(=O)O)cc(S(=O)(=O)O)c45)ccc3C)c2)c1 [suramine, reference compound]

SMILES: C=CC(C#CC#CC(O)CCCCCCCCC)OC(C)=O (centres unmarked) [8-hydroxyheptadeca-1-ene-4,6-diyn-3-yl ethanoate]
- IC50 [6]: 100 to 2500 nM
- SI compared on L6 rat skeletal myoblasts [6]: > 10

SMILES: C=C[C@H](O)C#CC#CC/C=C\CCCCCCC [Falcarinol]
- reported log P [7]: 5.50
- SI compared to HeLa cytotoxicity ([8]; T. b. brucei compared to HeLa): 858
- IC50 [8]: 40 nM
- IC50 on Trypanosoma brucei brucei [8]: 0.01 µg/mL (≈ 0.0409 µM)

SMILES: C=CC(C#CC#CC(O)CCCCCCCCCCOC(C)=O)OC(C)=O (centres unmarked) [16-acetoxy-11-hydroxyoctadeca-17-ene-12,14-diynyl ethanoate]
- IC50 [6]: 100 to 2500 nM
- SI compared on L6 rat skeletal myoblasts [6]: > 10

SMILES: C=C1/C=C/[C@H](C(C)C)CC/C(C)=C/CC1 [germacrene D, Germacrene D]
- growth inhibition of T. cruzi trypomastigotes [9]: 61%
- IC50 cruzain [10]: 22.1 µg/mL (≈ 108 µM)
